The values below come from ChEMBL document CHEMBL1147711, “Tetrazole thioacetanilides: potent non-nucleoside inhibitors of WT HIV reverse transcriptase and its K103N mutant” (Bioorg Med Chem Lett, 2006).

Data set [1] addresses Human immunodeficiency virus type 1 reverse transcriptase (Human immunodeficiency virus 1, UniProt Q72547). In words: Inhibition of HIV1 wild type Reverse Transcriptase.
In data set [2] the test system is Human immunodeficiency virus 1. In words: Antiviral activity against HIV1 in presence of 50% NHS. It is filed as functional. The following applies: read-out: CIC95.
Data set [3] relates to Human immunodeficiency virus type 1 reverse transcriptase (Human immunodeficiency virus 1), Q72547 [UNDEFINED MUTATION]. In words: Ratio of K103N mutant IC50 to wild type Reverse Transcriptase IC50.
The test system of data set [4] is Human immunodeficiency virus 1. In words: Antiviral activity against HIV1 in presence of 10% FBS. The format is functional. The following applies: read-out: CIC95.
Data set [5] can be described thus: Oral bioavailability in rat at 3 mg/kg, iv and po. The format is ADME, organism-based. The following applies: in vivo.

A value given as a limit tells only on which side of the number the result lay.

Regarding `O=C(CSc1nnnn1-c1c(Cl)cccc1Cl)Nc1ccccc1[N+](=O)[O-]`, in data set [1], the IC50 came to 4 nM. Further, the IC95 in data set [2] amounted to 62 nM; in data set [4] it was 15 nM. Moreover, the Ratio in data set [3] is 1.
The matching figures for `NS(=O)(=O)c1ccc(NC(=O)CSc2nnnn2-c2cccc(Cl)c2Cl)c(Cl)c1`: 9 nM, 250 nM, 62 nM and 1.
The matching figures for `Cc1cc(C)c(-n2nnnc2SCC(=O)Nc2ccc(C(N)=O)cc2C)c(C)c1`: 55 nM, 62 nM, 31 nM and 1.
The corresponding values for `Cc1c(Cl)cccc1-n1nnnc1SCC(=O)Nc1ccccc1[N+](=O)[O-]` are 3 nM, 31 nM, 8 nM and 3.
In data set [1], `Cc1cc(C)c(-n2nnnc2SCC(=O)Nc2ccccc2[N+](=O)[O-])c(C)c1` gave an IC50 of 3 nM. Besides, the IC95 in data set [2] amounted to 90 nM; in data set [4], 11 nM. Besides, in data set [5], the bioavailability amounted to 0%. Further, the Ratio in data set [3] came out at 3.
With `Cc1cc(C)c(-n2nnnc2SCC(=O)Nc2ccc(C(N)=O)cc2Cl)c(C)c1`, the IC50 in data set [1] turned out to be 3 nM. Also, the IC95 was determined as 16 nM in data set [2] and 8 nM in data set [4]. In data set [3], the Ratio amounted to 2.
In turn, `Cc1cc(C)c(-n2nnnc2SCC(=O)Nc2ccc(S(N)(=O)=O)cc2)c(C)c1` had an IC50 in data set [1] of 1250 nM. The IC95 was more than 5000 nM in data set [2] and 1250 nM in data set [4].
`Cc1cc(C)c(-n2nnnc2SCC(=O)Nc2ccc(S(N)(=O)=O)cc2C)c(C)c1` came in with an IC50 in data set [1] of 54 nM. Besides, the IC95 in data set [2] was 580 nM; in data set [4] it was 50 nM. The compound also returned a bioavailability in data set [5] of 60%. In addition, in data set [3], the Ratio is 1.
On to `Cc1cccc(-n2nnnc2SCC(=O)Nc2ccccc2[N+](=O)[O-])c1C`, for which the IC50 in data set [1] turned out to be 18 nM. In addition, the values for the IC95 in data set [2] and in data set [4] were 250 nM and 63 nM, respectively. Moreover, the Ratio in data set [3] came to 1.
The corresponding values for `Cc1ccc(Cl)cc1-n1nnnc1SCC(=O)Nc1ccccc1[N+](=O)[O-]` are 23 nM, 1250 nM, 78 nM and 1.
`O=C(CSc1nnnn1-c1cccc(Cl)c1Cl)Nc1ccccc1[N+](=O)[O-]` registered an IC50 in data set [1] of 12 nM. For the same compound, the IC95 came out at 125 nM in data set [2] and 78 nM in data set [4]. Further, the Ratio in data set [3] was 1.
`Cc1cc(C)c(-n2nnnc2SCC(=O)Nc2cccc([N+](=O)[O-])c2)c(C)c1` displayed an IC50 in data set [1] of 200 nM. For the same compound, in data set [4], the IC95 is more than 5000 nM.
As to `Cc1ccc(-n2nnnc2SCC(=O)Nc2ccccc2[N+](=O)[O-])c(Br)c1`, half-maximal inhibition in data set [1] (IC50) required 3 nM. Moreover, the IC95 stood at 62 nM in data set [2] and 8 nM in data set [4]. Besides, the Ratio in data set [3] was 3.
Compound `Cc1cc(C)c(-n2nnnc2SCC(=O)Nc2ccc(C(=O)NCCCN(C)C)cc2Cl)c(C)c1` had an IC50 in data set [1] of 5 nM. The figures for the IC95 in data set [2] and in data set [4] were 16 nM and 8 nM, respectively. The Ratio in data set [3] amounted to 2.
`Cc1cc(C)c(-n2nnnc2SCC(=O)Nc2ccc(Cl)cc2[N+](=O)[O-])c(C)c1` yielded an IC50 in data set [1] of 4 nM. Moreover, the figures for the IC95 in data set [2] and in data set [4] were 400 nM and 31 nM, respectively. The Ratio in data set [3] was 3.
Regarding `Cc1cc(C)c(-n2nnnc2SCC(=O)Nc2ccccc2Cl)c(C)c1`, in data set [1], the IC50 was found to be 5 nM. For the same compound, in data set [3], the Ratio was determined as 3.
In data set [1], `Cc1cc(C)c(-n2nnnc2SCC(=O)Nc2ccc(S(N)(=O)=O)cc2Cl)c(C)c1` yielded an IC50 of 4 nM. In addition, the values for the IC95 in data set [2] and in data set [4] were 62 nM and 16 nM, respectively. Besides, the bioavailability in data set [5] turned out to be 33%. The Ratio in data set [3] turned out to be 3.
On to `Cc1cc(C)c(-n2nnnc2SCC(=O)Nc2c(Cl)cccc2Cl)c(C)c1`, for which, in data set [1], the IC50 was more than 5000 nM. Also, the IC95 in data set [2] and in data set [4] was more than 5000 nM in each case.
In data set [1], `Cc1cc(C)c(-n2nnnc2SCC(=O)Nc2ccc([N+](=O)[O-])cc2)c(C)c1` yielded an IC50 of more than 5000 nM. The IC95 in data set [2] and in data set [4] was more than 5000 nM each time.
The compound `Cc1cc(C)c(-n2nnnc2SCC(=O)Nc2ccc(OCCCN(C)C)cc2Cl)c(C)c1` displayed an IC50 in data set [1] of 13 nM. The IC95 in data set [2] and in data set [4] was 62 nM each time. Besides, the Ratio in data set [3] was 5.
`Cc1cc(C)c(-n2nnnc2SCC(=O)Nc2ccccc2I)c(C)c1` registered an IC50 in data set [1] of 31 nM. Moreover, the IC95 in data set [2] is 1250 nM; in data set [4], 312 nM. In addition, the Ratio in data set [3] was 3.
`Cc1cc(C)c(-n2nnnc2SCC(=O)Nc2ccc([N+](=O)[O-])cc2C)c(C)c1` returned an IC50 in data set [1] of 165 nM. In addition, the results for the IC95 in data set [2] and in data set [4] were more than 5000 nM and 1250 nM, respectively. Also, the Ratio in data set [3] was determined as 3.
The matching figures for `Cc1cc(C)c(-n2nnnc2SCC(=O)Nc2ccccc2Br)c(C)c1`: 7 nM, 810 nM, 100 nM and 5.
`NS(=O)(=O)c1ccc(NC(=O)CSc2nnnn2-c2cc(Cl)ccc2Cl)c(Cl)c1` gave an IC50 in data set [1] of 3 nM. The IC95 in data set [2] came out at 125 nM; in data set [4] it was 16 nM. In data set [5], this compound showed a bioavailability of 33%. In addition, the Ratio in data set [3] came out at 1.
In turn, `Cc1cc(C)c(-n2nnnc2SCC(=O)Nc2ccc([N+](=O)[O-])cc2Cl)c(C)c1` gave an IC50 in data set [1] of 22 nM. Further, the results for the IC95 in data set [2] and in data set [4] were 1250 nM and 78 nM, respectively. The Ratio in data set [3] is 5.
The matching figures for `O=C(CSc1nnnn1-c1cc(Cl)ccc1Cl)Nc1ccccc1[N+](=O)[O-]`: 4 nM, 200 nM, 31 nM and 1.
In turn, `O=C(CSc1nnnn1-c1ccc(Cl)c(Cl)c1)Nc1ccccc1[N+](=O)[O-]` returned an IC50 in data set [1] of 230 nM. The IC95 in data set [2] and in data set [4] was more than 5000 nM each time. In addition, the Ratio in data set [3] turned out to be 2.
As to `O=C(CSc1nnnn1-c1cc(F)ccc1Cl)Nc1ccccc1[N+](=O)[O-]`, in data set [1], it took 10 nM to reach half-maximal inhibition (IC50). The IC95 stood at 250 nM in data set [2] and 63 nM in data set [4]. Further, the Ratio in data set [3] came out at 1.

Usually IC50 stands for the concentration needed to halve the response being measured. Read a low IC50 as inhibition by little substance. The term bioavailability denotes dose-corrected exposure relative to a reference, in per cent.
